These are literature values, as cited in patent US7572882B2 (priority 2000, dated 2009).

The subject of one series is T helper lymphocytes. The settings on record: regardless of HLA type.

Consider aKXVAAWTLKAAa, for which the “binding to HLA-DR alleles” value in the series on HLA-DR alleles is given as “bind to most HLA-DR alleles”. In addition, the “stimulation of the response of T helper lymphocytes” value in the series with T helper lymphocytes is “stimulate the response of T helper lymphocytes from most individuals”.
